From patent US20220395472A1 (Dermavant Sciences GmbH, priority 2021, published 2022)

Test system: adults with plaque psoriasis
Assay: Long-term open-label extension study (PSOARING 3): Physician Global Assessment (PGA), treatment episodes, treatment success, remittive effect
Format: in vivo, human
Settings: for Proportion of subjects who never achieved PGA = 0 or 1 throughout the study / Proportion of subjects who achieved PGA = 0 or 1 at least 1 time during the study: entering with PGA ≥ 2
Experimental: This extension study consisted of up to 40 weeks of treatment and a 4 week, safety follow up period.
At the completion of the Week 12 visit of the DB, pivotal Phase 3 study, eligibility of the subjects opting to enroll in this extension study was confirmed. Study visits during the treatment period for all subjects occurred every 4 weeks (±3 days). A phone call was performed at Week 2 (Day 15). Unscheduled visits may have occurred, as needed. Subjects who withdrew from this study before Week 40 returned to the study center for an Early Termination visit. The total duration of this extension study participation was 44 weeks. Subjects in this study were treated as follows based on their PGA score from the Week 12 visit in the DB, pivotal Phase 3 study (Study DMVT 505 3001 or Study DMVT 505 3002).
The PGA was used to assess the primary efficacy endpoint in this study. The PGA is a clinical tool for assessing the current state/severity of a subject's psoriasis at a given time point. It is a static, 5 point, morphological assessment of overall disease severity, as determined by the Investigator, using the clinical characteristics of erythema, scaling, and plaque thickness/elevation as guidelines; higher PGA scores represent more severe disease (0=clear, 1=almost clear, 2=mild, 3=moderate, and 4=severe). The BSA affected was not considered in scoring of the PGA. Variations of the PGA are frequently used in clinical studies because it is a simple assessment, similar to those used in clinical practice. The PGA was performed first, prior to the % BSA, PASI, and LTS assessments.
Time to event parameters, such as the time from treatment success to subsequent worsening (PGA≥2) or duration of treatment episode, were summarized by the Kaplan Meier product limit method using OC.

[1] = entering with PGA = 0, Kaplan-Meier, Overall
[2] = entering with PGA = 0, Kaplan-Meier, Tapinarof (Pivotal) group
[3] = entering with PGA = 0, Kaplan-Meier, Vehicle (Pivotal) group
[4] = entering with PGA = 0, Tapinarof (Pivotal) group
[5] = entering with PGA = 0, Vehicle (Pivotal) group
[6] = entering with PGA ≥ 1, Kaplan-Meier, Vehicle (Pivotal) group
[7] = entering with PGA ≥ 1, Tapinarof (Pivotal) group
[8] = entering with PGA ≥ 1, Vehicle (Pivotal) group
[9] = final analysis, overall, baseline

CC(C)c1c(O)cc(/C=C/c2ccccc2)cc1O [Tapinarof, 3,5-Dihydroxy-4-isopropyl-trans-stilbene]
PGA 2 - Mild (Week 40 OC, Vehicle (Pivotal)): 35 (31.0) n (%) | PGA 3 - Moderate (Week 40 OC, Vehicle (Pivotal)): 15 (13.3) n (%) | PGA 4 - Severe (Week 40 OC, Vehicle (Pivotal)): 0 (0.0) n (%) | PGA Change from Baseline: Improved by 1 (Week 40 OC, Vehicle (Pivotal)): 41 (36.3) n (%) | PGA Change from Baseline: Improved by 2 (Week 40 OC, Vehicle (Pivotal)): 27 (23.9) n (%) | PGA Change from Baseline: Improved by 3 (Week 40 OC, Vehicle (Pivotal)): 17 (15.0) n (%) | PGA Change from Baseline: Improved by 4 (Week 40 OC, Vehicle (Pivotal)): 1 (0.9) n (%) | PGA Change from Baseline: No Change (Week 40 OC, Vehicle (Pivotal)): 19 (16.8) n (%) | PGA Change from Baseline: Worsened by 1 (Week 40 OC, Vehicle (Pivotal)): 7 (6.2) n (%) | PGA Change from Baseline: Worsened by 2 (Week 40 OC, Vehicle (Pivotal)): 1 (0.9) n (%) | PGA Change from Baseline: Worsened by 3 (Week 40 OC, Vehicle (Pivotal)): 0 (0.0) n (%) | PGA Change from Baseline: Worsened by 4 (Week 40 OC, Vehicle (Pivotal)): 0 (0.0) n (%) | Durability of Response, No. of Subjects (Wk. 0, Overall): 240 | Durability of Response, No. of Subjects (Wk. 0, Tapinarof→Tapinarof): 18 | Durability of Response, No. of Subjects (Wk. 4, Overall): 273 | Durability of Response, No. of Subjects (Wk. 4, Tapinarof→Tapinarof): 216 | Durability of Response, No. of Subjects (Wk. 4, Vehicle→Tapinarof): 57 | Durability of Response, No. of Subjects (Wk. 8, Overall): 330 | Durability of Response, No. of Subjects (Wk. 8, Tapinarof→Tapinarof): 243 | Durability of Response, No. of Subjects (Wk. 8, Vehicle→Tapinarof): 87 | Durability of Response, No. of Subjects (Wk. 12, Overall): 334 | Durability of Response, No. of Subjects (Wk. 12, Tapinarof→Tapinarof): 233 | Durability of Response, No. of Subjects (Wk. 16, Overall): 336 | Durability of Response, No. of Subjects (Wk. 16, Tapinarof→Tapinarof): 239 | Durability of Response, No. of Subjects (Wk. 16, Vehicle→Tapinarof): 97 | Durability of Response, No. of Subjects (Wk. 20, Overall): 358 | Durability of Response, No. of Subjects (Wk. 20, Tapinarof→Tapinarof): 250 | Durability of Response, No. of Subjects (Wk. 24, Overall): 346 | Durability of Response, No. of Subjects (Wk. 24, Tapinarof→Tapinarof): 236 | Durability of Response, No. of Subjects (Wk. 28, Overall): 336 | Durability of Response, No. of Subjects (Wk. 28, Tapinarof→Tapinarof): 230 | Durability of Response, No. of Subjects (Wk. 32, Overall): 339 | Durability of Response, No. of Subjects (Wk. 32, Tapinarof→Tapinarof): 233 | Durability of Response, No. of Subjects (Wk. 36, Overall): 340 | Durability of Response, No. of Subjects (Wk. 36, Tapinarof→Tapinarof): 225 | Durability of Response, No. of Subjects (Wk. 40, Overall): 330 | Durability of Response, No. of Subjects (Wk. 40, Tapinarof→Tapinarof): 224 | Time to First Worsening (PGA ≥ 2), Median (95% CI) (entering with PGA = 0 (n=78), Kaplan-Meier, Overall, interim): 115 (85.0, 162.0) days | Time to First Worsening (PGA ≥ 2), 25th percentile (95% CI) [1]: 54 (29.0, 66.0) days | Time to First Worsening (PGA ≥ 2), 75th percentile (95% CI) [1]: 222 (169.0, 309.0) days | Time to First Worsening (PGA ≥ 2), 25th percentile (95% CI) [2]: 54 (29.0, 76.0) days | Time to First Worsening (PGA ≥ 2), 75th percentile (95% CI) [2]: 196 (168.0, 309.0) days | Time to First Worsening (PGA ≥ 2), Median (95% CI) [2]: 114 (85.0, 142.0) days | Time to First Worsening (PGA ≥ 2), 25th percentile (95% CI) [3]: 66 (42.0, NE) days | Time to First Worsening (PGA ≥ 2), Median (95% CI) [3]: 281 (42.0, NE) days | Proportion of subjects who experienced PGA ≥ 2 at least 1 time during the study (entering with PGA = 0, Overall): 59/78 (75.6) % | Proportion of subjects who never experienced PGA ≥ 2 throughout the study (entering with PGA = 0, Overall): 19/78 (24.4) % | Proportion of subjects who experienced PGA ≥ 2 at least 1 time during the study (entering with PGA = 0, Overall, listed as tapinarof): 75.6% | Proportion of subjects who experienced PGA ≥ 2 at least 1 time during the study [4]: 56/73 (76.7) % | Proportion of subjects who never experienced PGA ≥ 2 throughout the study [4]: 17/73 (23.3) % | Proportion of subjects who experienced PGA ≥ 2 at least 1 time during the study [5]: 3/5 (60.0) % | Proportion of subjects who never experienced PGA ≥ 2 throughout the study [5]: 2/5 (40.0) % | Time to First Achieving PGA = 0, 25th percentile (entering with PGA ≥ 1, Kaplan-Meier, Overall): 141 days | Time to First Achieving PGA = 0, 25th percentile (entering with PGA ≥ 1, Kaplan-Meier, Overall, listed as tapinarof): 141 days | Time to First Achieving PGA = 0, 25th percentile (entering with PGA ≥ 1, Kaplan-Meier, Tapinarof (Pivotal) group): 113 days | Time to First Achieving PGA = 0, 25th percentile (entering with PGA ≥ 1, Kaplan-Meier, Tapinarof (Pivotal) group, listed as tapinarof): 113 days | Time to First Achieving PGA = 0, 25th percentile [6]: 169 days | Time to First Achieving PGA = 0, Median [6]: 313 days | Time to First Achieving PGA = 0, 25th percentile (entering with PGA ≥ 1, Kaplan-Meier, Vehicle (Pivotal) group, listed as tapinarof): 169 days | Proportion of subjects who achieved PGA = 0 at least 1 time during the study (entering with PGA ≥ 1, Overall): 221/681 (32.5) % | Proportion of subjects who never achieved PGA = 0 throughout the study (entering with PGA ≥ 1, Overall): 460/681 (67.5) % | Proportion of subjects who achieved PGA = 0 at least 1 time during the study (entering with PGA ≥ 1, Overall, listed as tapinarof): 32.5% | Proportion of subjects who achieved PGA = 0 at least 1 time during the study [7]: 139/432 (32.2) % | Proportion of subjects who never achieved PGA = 0 throughout the study [7]: 293/432 (67.8) % | Proportion of subjects who achieved PGA = 0 at least 1 time during the study (entering with PGA ≥ 1, Tapinarof (Pivotal) group, listed as tapinarof): 32.2% | Proportion of subjects who achieved PGA = 0 at least 1 time during the study [8]: 82/249 (32.9) % | Proportion of subjects who never achieved PGA = 0 throughout the study [8]: 167/249 (67.1) % | Proportion of subjects who achieved PGA = 0 at least 1 time during the study (entering with PGA ≥ 1, Vehicle (Pivotal) group, listed as tapinarof): 32.9% | Proportion of subjects who never achieved PGA = 0 or 1 throughout the study (Overall): 222/520 (42.7) % | Proportion of subjects who achieved PGA = 0 or 1 at least 1 time during the study (Overall, interim): 298/520 (57.3) % | Proportion of subjects who achieved PGA = 0 or 1 at least 1 time during the study (Overall, interim, listed as tapinarof): 57.3% | Proportion of subjects who achieved PGA = 0 or 1 at least 1 time during the study (Tapinarof (Pivotal) group): 154/288 (53.5) % | Proportion of subjects who never achieved PGA = 0 or 1 throughout the study (Tapinarof (Pivotal) group): 134/288 (46.5) % | Proportion of subjects who achieved PGA = 0 or 1 at least 1 time during the study (Tapinarof (Pivotal) group, listed as tapinarof): 53.5% | Proportion of subjects who achieved PGA = 0 or 1 at least 1 time during the study (Vehicle (Pivotal) group): 144/232 (62.1) % | Proportion of subjects who never achieved PGA = 0 or 1 throughout the study (Vehicle (Pivotal) group): 88/232 (37.9) % | Proportion of subjects who achieved PGA = 0 or 1 at least 1 time during the study (Vehicle (Pivotal) group, listed as tapinarof): 62.1% | Patients entering with PGA≥2 who achieved PGA 0 or 1 at least once during the study (final analysis): 58.2% | Patients who achieved complete disease clearance (PGA=0) at least once during the study (final analysis, 312/763): 40.9% | participants with PGA=0 or 1 (final analysis, overall, Week 40): 44.3% | participants with PGA=0 [9]: 10.4% | participants with PGA=0 or 1 [9]: 31.6% | mean total duration of remittive effect (final analysis, patients entering with, or achieving, PGA=0 (n=312)): 130 days
